From ChEMBL document CHEMBL4411296, “Design and development of Isatin-triazole hydrazones as potential inhibitors of microtubule affinity-regulating kinase 4 for the therapeutic management of cell proliferation and metastasis” (Eur J Med Chem, 2019)
Activity calls are given as the source filed them. The rule behind the calls is not given here.

Key:
[1] = system: HepG2; assay: Induction of apoptosis in human HepG2 cells assessed as viable cells at IC50 after 24 hrs by Annexin V-FITC/propidium iodide staining-based flow cytometric analysis (reference value: 97.6%); type: functional
[2] = target: Serine/threonine-protein kinase MARK1 (Homo sapiens) (UniProt Q9P0L2); assay: Inhibition of MARK1 (unknown origin) at 10 uM after 60 mins by ADP-Glo luminescence assay
[3] = target: Death-associated protein kinase 1 (Homo sapiens) (UniProt P53355); assay: Inhibition of DAPK1 (unknown origin) at 10 uM after 60 mins by ADP-Glo luminescence assay
[4] = system: HEK293; assay: Antiproliferative activity against human HEK293 cells assessed as cell viability after 48 hrs by MTT assay; type: cell-based; details: HEK293, 48 h
[5] = system: HepG2; assay: Antiproliferative activity against human HepG2 cells assessed as cell viability after 48 hrs by MTT assay; details: HepG2, 48 h
[6] = target: PAS domain-containing serine/threonine-protein kinase (Homo sapiens) (UniProt Q96RG2); assay: Inhibition of PASK (unknown origin) at 10 uM after 60 mins by ADP-Glo luminescence assay
[7] = target: Albumin (Homo sapiens, UniProt P02768); assay: Binding affinity to HSA by ITC; type: ADME; details: isolated protein
[8] = system: MCF7; assay: Induction of apoptosis in human MCF7 cells assessed as early apoptotic cells at IC50 after 24 hrs by Annexin V-FITC/propidium iodide staining-based flow cytometric analysis (reference value: 1.23%); type: functional
[9] = target: Calcium/calmodulin-dependent protein kinase type II subunit beta (Homo sapiens) (UniProt Q13554); assay: Inhibition of CAMK2 beta (unknown origin) at 10 uM after 60 mins by ADP-Glo luminescence assay
[10] = system: MCF7; assay: Induction of apoptosis in human MCF7 cells assessed as viable cells at IC50 after 24 hrs by Annexin V-FITC/propidium iodide staining-based flow cytometric analysis (reference value: 98.4%); type: functional
[11] = target: Serine/threonine-protein kinase Chk1 (Homo sapiens) (UniProt O14757); assay: Inhibition of CHK1 (unknown origin) at 10 uM after 60 mins by ADP-Glo luminescence assay
[12] = target: Calcium/calmodulin-dependent protein kinase type II subunit alpha (Homo sapiens) (UniProt Q9UQM7); assay: Inhibition of CAMK2 alpha (unknown origin) at 10 uM after 60 mins by ADP-Glo luminescence assay
[13] = system: MDA-MB-435S; assay: Induction of apoptosis in human MDA-MB-435S cells assessed as viable cells at IC50 after 24 hrs by Annexin V-FITC/propidium iodide staining-based flow cytometric analysis (reference value: 98.8%); type: functional
[14] = system: HepG2; assay: Induction of apoptosis in human HepG2 cells assessed as early apoptotic cells at IC50 after 24 hrs by Annexin V-FITC/propidium iodide staining-based flow cytometric analysis (reference value: […]); type: functional
[15] = system: HepG2; assay: Induction of apoptosis in human HepG2 cells assessed as late apoptotic cells at IC50 after 24 hrs by Annexin V-FITC/propidium iodide staining-based flow cytometric analysis (reference value: 0.039%); type: functional
[16] = system: MCF7; assay: Induction of apoptosis in human MCF7 cells assessed as late apoptotic cells at IC50 after 24 hrs by Annexin V-FITC/propidium iodide staining-based flow cytometric analysis (reference value: 0.077%); type: functional
[17] = target: MAP kinase-activated protein kinase 2 (Homo sapiens) (UniProt P49137); assay: Inhibition of MAPKAPK2 (unknown origin) at 10 uM after 60 mins by ADP-Glo luminescence assay
[18] = system: MDA-MB-435S; assay: Induction of ROS generation in human MDA-MB-435S cells at IC50 after 5 to 6 hrs by DCFDA staining-based spectroflourimetric analysis; type: functional, cell-based
[19] = target: Serine/threonine-protein kinase Chk2 (Homo sapiens) (UniProt O96017); assay: Inhibition of CHK2 (unknown origin) at 10 uM after 60 mins by ADP-Glo luminescence assay
[20] = system: MCF7; assay: Antiproliferative activity against human MCF7 cells assessed as cell viability after 48 hrs by MTT assay; details: MCF7, 48 h
[21] = system: MDA-MB-435S; assay: Induction of apoptosis in human MDA-MB-435S cells assessed as late apoptotic cells at IC50 after 24 hrs by Annexin V-FITC/propidium iodide staining-based flow cytometric analysis (reference value: 0.18%); type: functional
[22] = system: HepG2; assay: Antimigratory activity against human HepG2 cells at IC50 after 48 hrs by wound-healing assay; type: functional, cell-based
[23] = target: 5'-AMP-activated protein kinase subunit beta-1 (Homo sapiens) (UniProt Q9Y478); assay: Inhibition of AMPKB1 (unknown origin) at 10 uM after 60 mins by ADP-Glo luminescence assay
[24] = system: MDA-MB-435S; assay: Induction of apoptosis in human MDA-MB-435S cells assessed as necrotic cells at IC50 after 24 hrs by Annexin V-FITC/propidium iodide staining-based flow cytometric analysis (reference value: 0.64%); type: functional
[25] = system: HepG2; assay: Induction of apoptosis in human HepG2 cells assessed as necrotic cells at IC50 after 24 hrs by Annexin V-FITC/propidium iodide staining-based flow cytometric analysis (reference value: […]); type: functional
[26] = target: Serine/threonine-protein kinase D1 (Homo sapiens) (UniProt Q15139); assay: Inhibition of PKCmu (unknown origin) at 10 uM after 60 mins by ADP-Glo luminescence assay
[27] = system: MCF7; assay: Induction of ROS generation in human MCF7 cells at IC50 after 5 to 6 hrs by DCFDA staining-based spectroflourimetric analysis; type: functional, cell-based
[28] = system: HepG2; assay: Induction of ROS generation in human HepG2 cells at IC50 after 5 to 6 hrs by DCFDA staining-based spectroflourimetric analysis; type: functional, cell-based
[29] = system: MDA-MB-435S; assay: Induction of apoptosis in human MDA-MB-435S cells assessed as early apoptotic cells at IC50 after 24 hrs by Annexin V-FITC/propidium iodide staining-based flow cytometric analysis (reference value: 0.36%); type: functional
[30] = target: Calcium/calmodulin-dependent protein kinase type IV (Homo sapiens) (UniProt Q16566); assay: Inhibition of CAMK4 (unknown origin) at 10 uM after 60 mins by ADP-Glo luminescence assay
[31] = target: Ribosomal protein S6 kinase beta-1 (Homo sapiens) (UniProt P23443); assay: Inhibition of S6K (unknown origin) at 10 uM after 60 mins by ADP-Glo luminescence assay
[32] = system: MCF7; assay: Antimigratory activity against human MCF7 cells at IC50 after 48 hrs by wound-healing assay; type: functional, cell-based

Serine/threonine-protein kinase D1 (Homo sapiens), sequence (Q15139 whole entry): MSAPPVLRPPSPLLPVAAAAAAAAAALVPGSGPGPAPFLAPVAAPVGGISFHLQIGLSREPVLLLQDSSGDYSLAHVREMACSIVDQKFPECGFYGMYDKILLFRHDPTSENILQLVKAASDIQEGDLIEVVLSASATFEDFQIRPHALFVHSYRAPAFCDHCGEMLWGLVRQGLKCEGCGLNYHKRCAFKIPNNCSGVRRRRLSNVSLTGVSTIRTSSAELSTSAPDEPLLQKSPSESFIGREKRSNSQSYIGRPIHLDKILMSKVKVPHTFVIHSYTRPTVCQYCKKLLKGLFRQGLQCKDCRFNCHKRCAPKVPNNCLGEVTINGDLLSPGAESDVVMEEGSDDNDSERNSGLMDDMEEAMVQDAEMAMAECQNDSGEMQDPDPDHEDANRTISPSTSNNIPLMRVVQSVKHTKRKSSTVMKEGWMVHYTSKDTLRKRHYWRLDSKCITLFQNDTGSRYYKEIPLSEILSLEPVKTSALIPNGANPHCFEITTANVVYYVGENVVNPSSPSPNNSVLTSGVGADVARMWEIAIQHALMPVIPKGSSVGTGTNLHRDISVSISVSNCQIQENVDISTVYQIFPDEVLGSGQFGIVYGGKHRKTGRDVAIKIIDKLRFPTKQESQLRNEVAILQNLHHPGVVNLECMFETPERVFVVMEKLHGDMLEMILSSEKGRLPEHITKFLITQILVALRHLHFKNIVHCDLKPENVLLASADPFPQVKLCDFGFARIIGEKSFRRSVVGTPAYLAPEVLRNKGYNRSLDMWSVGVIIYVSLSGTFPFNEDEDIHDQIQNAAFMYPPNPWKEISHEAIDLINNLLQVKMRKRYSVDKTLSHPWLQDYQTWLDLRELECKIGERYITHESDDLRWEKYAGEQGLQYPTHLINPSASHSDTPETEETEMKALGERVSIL
MAP kinase-activated protein kinase 2 (Homo sapiens), sequence (P49137 whole entry, looked up): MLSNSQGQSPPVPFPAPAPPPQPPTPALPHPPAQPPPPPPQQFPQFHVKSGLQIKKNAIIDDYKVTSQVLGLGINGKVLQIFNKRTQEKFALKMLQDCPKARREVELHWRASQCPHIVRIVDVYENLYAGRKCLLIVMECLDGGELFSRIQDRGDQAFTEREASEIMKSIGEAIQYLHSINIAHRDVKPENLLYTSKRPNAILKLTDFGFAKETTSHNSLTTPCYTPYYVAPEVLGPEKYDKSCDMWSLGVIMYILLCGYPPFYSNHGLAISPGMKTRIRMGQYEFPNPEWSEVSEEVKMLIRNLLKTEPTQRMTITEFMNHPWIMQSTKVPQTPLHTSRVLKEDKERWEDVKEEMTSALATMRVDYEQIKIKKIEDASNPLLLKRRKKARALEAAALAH
PAS domain-containing serine/threonine-protein kinase (Homo sapiens), sequence (Q96RG2 whole entry, the tested form may be a part): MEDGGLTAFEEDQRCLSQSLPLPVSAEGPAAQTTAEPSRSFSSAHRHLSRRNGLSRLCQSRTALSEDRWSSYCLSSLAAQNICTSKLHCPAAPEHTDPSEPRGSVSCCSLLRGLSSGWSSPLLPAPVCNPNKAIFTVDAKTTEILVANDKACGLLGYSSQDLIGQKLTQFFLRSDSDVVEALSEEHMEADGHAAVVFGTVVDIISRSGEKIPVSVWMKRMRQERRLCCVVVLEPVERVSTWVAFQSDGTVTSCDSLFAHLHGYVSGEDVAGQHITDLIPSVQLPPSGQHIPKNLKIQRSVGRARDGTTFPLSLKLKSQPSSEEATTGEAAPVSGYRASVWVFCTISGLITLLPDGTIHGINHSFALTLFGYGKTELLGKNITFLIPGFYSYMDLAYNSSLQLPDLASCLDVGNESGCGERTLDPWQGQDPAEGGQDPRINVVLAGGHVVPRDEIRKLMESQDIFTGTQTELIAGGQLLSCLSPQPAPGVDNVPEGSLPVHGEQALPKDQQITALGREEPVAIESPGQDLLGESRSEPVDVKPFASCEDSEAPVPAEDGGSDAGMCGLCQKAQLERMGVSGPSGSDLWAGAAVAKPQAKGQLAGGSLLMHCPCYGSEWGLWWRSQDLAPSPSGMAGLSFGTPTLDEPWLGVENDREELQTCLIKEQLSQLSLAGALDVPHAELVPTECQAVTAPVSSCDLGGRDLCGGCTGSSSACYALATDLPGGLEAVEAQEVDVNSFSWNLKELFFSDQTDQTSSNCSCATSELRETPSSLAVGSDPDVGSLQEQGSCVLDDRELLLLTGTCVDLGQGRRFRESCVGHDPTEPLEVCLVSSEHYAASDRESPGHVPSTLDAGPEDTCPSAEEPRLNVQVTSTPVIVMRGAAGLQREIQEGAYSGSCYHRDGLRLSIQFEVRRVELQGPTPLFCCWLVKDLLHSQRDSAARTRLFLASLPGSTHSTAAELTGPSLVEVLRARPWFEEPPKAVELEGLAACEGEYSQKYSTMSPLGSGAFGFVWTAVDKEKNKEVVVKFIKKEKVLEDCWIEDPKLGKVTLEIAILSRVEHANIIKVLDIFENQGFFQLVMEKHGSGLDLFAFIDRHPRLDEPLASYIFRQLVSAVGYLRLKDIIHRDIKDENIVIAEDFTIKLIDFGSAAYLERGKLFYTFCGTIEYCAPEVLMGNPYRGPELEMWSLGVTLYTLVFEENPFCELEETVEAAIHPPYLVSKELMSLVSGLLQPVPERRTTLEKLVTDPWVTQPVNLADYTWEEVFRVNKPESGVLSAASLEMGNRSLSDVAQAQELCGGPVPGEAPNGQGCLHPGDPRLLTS
Serine/threonine-protein kinase MARK1 (Homo sapiens), sequence (Q9P0L2 whole entry, looked up): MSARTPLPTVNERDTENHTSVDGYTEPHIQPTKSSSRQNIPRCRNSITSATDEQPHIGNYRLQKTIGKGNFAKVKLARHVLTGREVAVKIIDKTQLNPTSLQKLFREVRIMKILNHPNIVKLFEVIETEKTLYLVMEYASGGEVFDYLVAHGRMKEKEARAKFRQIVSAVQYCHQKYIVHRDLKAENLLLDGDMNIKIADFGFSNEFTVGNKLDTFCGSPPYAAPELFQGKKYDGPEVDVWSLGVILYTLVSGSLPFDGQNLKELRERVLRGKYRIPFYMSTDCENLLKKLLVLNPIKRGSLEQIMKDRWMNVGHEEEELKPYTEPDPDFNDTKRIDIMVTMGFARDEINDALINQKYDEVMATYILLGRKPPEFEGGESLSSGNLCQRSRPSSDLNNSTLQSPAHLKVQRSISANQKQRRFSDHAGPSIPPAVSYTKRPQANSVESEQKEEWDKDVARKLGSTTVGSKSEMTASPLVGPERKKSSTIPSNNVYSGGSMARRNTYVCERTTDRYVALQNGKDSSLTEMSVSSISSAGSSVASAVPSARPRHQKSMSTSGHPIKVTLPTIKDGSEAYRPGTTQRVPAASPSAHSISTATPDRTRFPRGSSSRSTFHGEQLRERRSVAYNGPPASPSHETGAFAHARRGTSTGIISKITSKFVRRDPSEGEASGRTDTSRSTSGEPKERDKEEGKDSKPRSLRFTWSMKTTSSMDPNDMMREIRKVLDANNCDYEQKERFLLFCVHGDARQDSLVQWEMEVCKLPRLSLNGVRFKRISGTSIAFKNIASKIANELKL
Calcium/calmodulin-dependent protein kinase type II subunit alpha (Homo sapiens), sequence (Q9UQM7 whole entry): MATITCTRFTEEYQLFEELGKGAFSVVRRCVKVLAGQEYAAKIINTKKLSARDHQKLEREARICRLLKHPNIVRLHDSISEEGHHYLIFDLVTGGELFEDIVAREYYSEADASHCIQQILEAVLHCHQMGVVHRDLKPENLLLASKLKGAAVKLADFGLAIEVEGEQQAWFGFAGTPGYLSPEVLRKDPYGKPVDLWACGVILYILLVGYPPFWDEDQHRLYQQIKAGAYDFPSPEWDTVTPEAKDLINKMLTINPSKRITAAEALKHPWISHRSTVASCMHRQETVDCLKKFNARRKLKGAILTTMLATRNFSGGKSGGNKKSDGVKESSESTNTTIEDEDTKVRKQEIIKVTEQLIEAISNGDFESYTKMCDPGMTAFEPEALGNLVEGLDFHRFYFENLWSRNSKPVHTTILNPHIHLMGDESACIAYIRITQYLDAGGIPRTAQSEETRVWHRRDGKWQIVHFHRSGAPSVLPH
Serine/threonine-protein kinase Chk1 (Homo sapiens), sequence (O14757 whole entry): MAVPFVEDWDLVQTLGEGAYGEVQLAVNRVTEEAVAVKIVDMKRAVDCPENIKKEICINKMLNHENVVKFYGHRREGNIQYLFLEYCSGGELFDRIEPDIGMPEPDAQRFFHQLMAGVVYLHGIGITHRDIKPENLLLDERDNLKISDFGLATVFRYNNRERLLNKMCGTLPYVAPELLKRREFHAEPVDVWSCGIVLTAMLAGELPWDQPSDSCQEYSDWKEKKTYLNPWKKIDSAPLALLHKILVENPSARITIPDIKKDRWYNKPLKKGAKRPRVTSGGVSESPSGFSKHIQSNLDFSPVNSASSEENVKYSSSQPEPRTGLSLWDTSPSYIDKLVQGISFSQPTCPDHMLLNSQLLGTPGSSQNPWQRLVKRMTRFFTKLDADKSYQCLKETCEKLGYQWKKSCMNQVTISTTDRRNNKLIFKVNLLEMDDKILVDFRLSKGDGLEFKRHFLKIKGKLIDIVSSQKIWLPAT
Calcium/calmodulin-dependent protein kinase type II subunit beta (Homo sapiens), sequence (Q13554 whole entry): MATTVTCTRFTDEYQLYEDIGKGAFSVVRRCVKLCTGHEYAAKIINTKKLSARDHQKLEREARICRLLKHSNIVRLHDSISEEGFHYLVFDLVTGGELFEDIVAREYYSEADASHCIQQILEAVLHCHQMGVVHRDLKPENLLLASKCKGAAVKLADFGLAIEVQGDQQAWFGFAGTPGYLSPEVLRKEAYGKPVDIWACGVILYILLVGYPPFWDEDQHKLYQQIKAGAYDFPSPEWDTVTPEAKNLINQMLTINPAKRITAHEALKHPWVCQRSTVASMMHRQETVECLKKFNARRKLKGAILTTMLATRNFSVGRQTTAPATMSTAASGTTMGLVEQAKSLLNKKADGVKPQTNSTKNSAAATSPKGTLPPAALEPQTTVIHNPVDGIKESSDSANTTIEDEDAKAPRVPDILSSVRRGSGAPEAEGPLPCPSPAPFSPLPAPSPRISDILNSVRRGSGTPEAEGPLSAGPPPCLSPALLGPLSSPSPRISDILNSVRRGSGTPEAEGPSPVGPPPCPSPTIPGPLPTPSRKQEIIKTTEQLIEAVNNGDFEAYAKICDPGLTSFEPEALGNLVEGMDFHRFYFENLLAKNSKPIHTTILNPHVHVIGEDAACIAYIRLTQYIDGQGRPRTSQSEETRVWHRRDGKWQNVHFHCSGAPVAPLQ

With `COc1ccc(Cn2cc(C(=O)N/N=C3/C(=O)Nc4c(C)cccc43)nn2)cc1` the Activity [1] was 59.4%, the inhibition [2] was “inactive” and the inhibition [3] was “inactive”. For the same compound, the IC50 [4] was 200 µM, the IC50 [5] was 8.14 µM and the inhibition [6] was “inactive”. For the same compound, the Ka [7] was 1.27 ×10⁴ /M, the Activity [8] was 33.5% and the inhibition [9] was “inactive”. For the same compound, the Activity [10] was 52.6%, the inhibition [11] was “inactive” and the inhibition [12] was “inactive”. The Activity [13] was 66.3%, the Activity [14] was 37.3% and the Activity [15] was 1.19%. The Activity [16] was 13.1%, the inhibition [17] was “inactive” and the Activity [18] was “Active”. The inhibition [19] was “inactive”, the IC50 [20] was 6.22 µM and the Activity [21] was 2.24%. For the same compound, the Activity [22] was “Active”, the inhibition [23] was “inactive” and the Activity [24] was 0.59%. For the same compound, the Activity [25] was 2.11%, the inhibition [26] was “inactive” and the Activity [27] was “Active”. For the same compound, the Activity [28] was “Active”, the Activity [29] was 30.9% and the inhibition [30] was “inactive”. The inhibition [31] was “inactive” and the Activity [32] was “Active”.
